Literature values in patent US20060013877A1 (Nanohybrid Co., Ltd., priority 2002, published 2006).

water solubility: about 1 mg/ml
SMILES: CCC(C)n1ncn(-c2ccc(N3CCN(c4ccc(OC[C@H]5CO[C@](Cn6cncn6)(c6ccc(Cl)cc6Cl)O5)cc4)CC3)cc2)c1=O (mixture of isomers) [itraconazole, (±)-cis-4-[4-[4-[4-[[2-(2,4-dichlorophenyl)-2-(1H-1,2,4-triazole-1-ylmethyl)-1,3-dioxoran-4-yl]methoxy]phenyl]-1-piperazinyl]phenyl]-2,4-dihydro-2-(1-methylpropyl)-3H-1,2,4-triazole-3-one]
